# PubChem BioAssay AID1919017 (Molecular Pharmacology Branch, DTP, NCI, 2023)
# System: SW1271 complex spheroids with HUVEC/MSC, growth, % test/control
# Test: Anticancer human tumor SW1271 cell line growth inhibition [AhR];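 further: spheroids exposed to agents for 7 days before readout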
# Details: for IC50: curve of first compound; for viability, T/C: stronger effect = lower value
# How it was run: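 Agents were dosed in half-log steps down from roughly clinical Cmax, or from 10 microM where Cmax was unknown, alone and with AhR antagonists. Read-out: percent test/control growth of tumor spheroids containing HUVEC and MSC stromal cells.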
# [1] = second compound 0.1 µM, first compound 0.0316 µM
# [2] = second compound 0.1 µM, first compound 0.1 µM
# [3] = second compound 0.1 µM, first compound 0.316 µM
# [4] = second compound 0.1 µM, first compound 1 µM
# [5] = second compound 0.316 µM, first compound 0.0316 µM
# [6] = second compound 0.316 µM, first compound 0.1 µM
# [7] = second compound 0.316 µM, first compound 0.316 µM
# [8] = second compound 0.316 µM, first compound 1 µM
# [9] = second compound 1 µM, first compound 0.0316 µM
# [10] = second compound 1 µM, first compound 0.1 µM
# [11] = second compound 1 µM, first compound 0.316 µM
# [12] = second compound 1 µM, first compound 1 µM
# [13] = second compound 3.16 µM, first compound 0.0316 µM
# [14] = second compound 3.16 µM, first compound 0.1 µM
# [15] = second compound 3.16 µM, first compound 0.316 µM
# [16] = second compound 3.16 µM, first compound 1 µM
# [17] = second compound 10 µM, first compound 0.0316 µM
# [18] = second compound 10 µM, first compound 0.1 µM
# [19] = second compound 10 µM, first compound 0.316 µM
# [20] = second compound 10 µM, first compound 1 µM
# [21] = second compound 0.1 µM, first compound 0.00949 µM
# [22] = second compound 0.1 µM, first compound 0.03 µM
# [23] = second compound 0.1 µM, first compound 0.0949 µM
# [24] = second compound 0.1 µM, first compound 0.3 µM
# [25] = second compound 0.1 µM, first compound 0.949 µM
# [26] = second compound 0.1 µM, first compound 3 µM
# [27] = second compound 0.316 µM, first compound 0.00949 µM
# [28] = second compound 0.316 µM, first compound 0.03 µM
# [29] = second compound 0.316 µM, first compound 0.0949 µM
# [30] = second compound 0.316 µM, first compound 0.3 µM
# [31] = second compound 0.316 µM, first compound 0.949 µM
# [32] = second compound 0.316 µM, first compound 3 µM
# [33] = second compound 1 µM, first compound 0.00949 µM
# [34] = second compound 1 µM, first compound 0.03 µM
# [35] = second compound 1 µM, first compound 0.0949 µM
# [36] = second compound 1 µM, first compound 0.3 µM
# [37] = second compound 1 µM, first compound 0.949 µM
# [38] = second compound 1 µM, first compound 3 µM
# [39] = second compound 3.16 µM, first compound 0.00949 µM
# [40] = second compound 3.16 µM, first compound 0.03 µM
# [41] = second compound 3.16 µM, first compound 0.0949 µM
# [42] = second compound 3.16 µM, first compound 0.3 µM
# [43] = second compound 3.16 µM, first compound 0.949 µM
# [44] = second compound 3.16 µM, first compound 3 µM
# [45] = second compound 10 µM, first compound 0.00949 µM
# [46] = second compound 10 µM, first compound 0.03 µM
# [47] = second compound 10 µM, first compound 0.0949 µM
# [48] = second compound 10 µM, first compound 0.3 µM
# [49] = second compound 10 µM, first compound 0.949 µM
# [50] = second compound 10 µM, first compound 3 µM
smiles,measurement,setting,value
CC1COCCN1c1cc(-c2ccnn2C)c2ccnc(-c3ccn[nH]3)c2n1 (stereo not given) + Cc1cncc(-c2nc(NCCc3c[nH]c4ccccc34)c3ncn(C(C)C)c3n2)c1,IC50,second compound 0.1 µM,413 nM
same,IC50,second compound 0.316 µM,251 nM
same,IC50,second compound 1 µM,653 nM
same,IC50,second compound 3.16 µM,735 nM
same,IC50,second compound 10 µM,< 3.16 nM
same,"viability, T/C","second compound 0.1 µM, first compound 0.00316 µM",79.6%
same,"viability, T/C","second compound 0.1 µM, first compound 0.01 µM",86.7%
same,"viability, T/C",[1],70.2%
same,"viability, T/C",[2],57.4%
same,"viability, T/C",[3],58%
same,"viability, T/C",[4],39.4%
same,"viability, T/C","second compound 0.316 µM, first compound 0.00316 µM",68%
same,"viability, T/C","second compound 0.316 µM, first compound 0.01 µM",90.1%
same,"viability, T/C",[5],70.4%
same,"viability, T/C",[6],62.2%
same,"viability, T/C",[7],48%
same,"viability, T/C",[8],35.1%
same,"viability, T/C","second compound 1 µM, first compound 0.00316 µM",89.8%
same,"viability, T/C","second compound 1 µM, first compound 0.01 µM",88%
same,"viability, T/C",[9],75.3%
same,"viability, T/C",[10],63%
same,"viability, T/C",[11],62%
same,"viability, T/C",[12],44.2%
same,"viability, T/C","second compound 3.16 µM, first compound 0.00316 µM",72.2%
same,"viability, T/C","second compound 3.16 µM, first compound 0.01 µM",85.2%
same,"viability, T/C",[13],72.4%
same,"viability, T/C",[14],70.2%
same,"viability, T/C",[15],61.3%
same,"viability, T/C",[16],46%
same,"viability, T/C","second compound 10 µM, first compound 0.00316 µM",30.2%
same,"viability, T/C","second compound 10 µM, first compound 0.01 µM",35%
same,"viability, T/C",[17],36.9%
same,"viability, T/C",[18],36.2%
same,"viability, T/C",[19],35%
same,"viability, T/C",[20],24.6%
CC1COCCN1c1cc(C2(S(C)(=N)=O)CC2)nc(-c2ccnc3[nH]ccc23)n1 (stereo not given) + Cc1cncc(-c2nc(NCCc3c[nH]c4ccccc34)c3ncn(C(C)C)c3n2)c1,IC50,second compound 0.1 µM,> 10000 nM
same,IC50,second compound 0.316 µM,> 10000 nM
same,IC50,second compound 1 µM,> 10000 nM
same,IC50,second compound 3.16 µM,> 10000 nM
same,IC50,second compound 10 µM,< 31.6 nM
same,"viability, T/C",[1],87.4%
same,"viability, T/C",[2],103%
same,"viability, T/C",[3],85.7%
same,"viability, T/C",[4],88.1%
same,"viability, T/C","second compound 0.1 µM, first compound 3.16 µM",85.3%
same,"viability, T/C","second compound 0.1 µM, first compound 10 µM",67.8%
same,"viability, T/C",[5],85.5%
same,"viability, T/C",[6],103%
same,"viability, T/C",[7],106%
same,"viability, T/C",[8],103%
same,"viability, T/C","second compound 0.316 µM, first compound 3.16 µM",71.7%
same,"viability, T/C","second compound 0.316 µM, first compound 10 µM",52.6%
same,"viability, T/C",[9],83.7%
same,"viability, T/C",[10],87.7%
same,"viability, T/C",[11],88.7%
same,"viability, T/C",[12],84.5%
same,"viability, T/C","second compound 1 µM, first compound 3.16 µM",90.2%
same,"viability, T/C","second compound 1 µM, first compound 10 µM",62.7%
same,"viability, T/C",[13],83%
same,"viability, T/C",[14],93%
same,"viability, T/C",[15],93.6%
same,"viability, T/C",[16],71.1%
same,"viability, T/C","second compound 3.16 µM, first compound 3.16 µM",69.4%
same,"viability, T/C","second compound 3.16 µM, first compound 10 µM",59.3%
same,"viability, T/C",[17],51.6%
same,"viability, T/C",[18],46.9%
same,"viability, T/C",[19],45.5%
same,"viability, T/C",[20],40%
same,"viability, T/C","second compound 10 µM, first compound 3.16 µM",43.3%
same,"viability, T/C","second compound 10 µM, first compound 10 µM",28.9%
CCN(c1cc(-c2ccc(CN3CCOCC3)cc2)cc(C(=O)NCc2c(C)cc(C)[nH]c2=O)c1C)C1CCOCC1 + Cc1cncc(-c2nc(NCCc3c[nH]c4ccccc34)c3ncn(C(C)C)c3n2)c1,IC50,second compound 0.1 µM,> 3000 nM
same,IC50,second compound 0.316 µM,> 3000 nM
same,IC50,second compound 1 µM,> 3000 nM
same,IC50,second compound 3.16 µM,> 3000 nM
same,IC50,second compound 10 µM,< 9.49 nM
same,"viability, T/C",[21],81%
same,"viability, T/C",[22],100%
same,"viability, T/C",[23],108%
same,"viability, T/C",[24],97.5%
same,"viability, T/C",[25],99.7%
same,"viability, T/C",[26],118%
same,"viability, T/C",[27],99%
same,"viability, T/C",[28],105%
same,"viability, T/C",[29],103%
same,"viability, T/C",[30],124%
same,"viability, T/C",[31],106%
same,"viability, T/C",[32],115%
same,"viability, T/C",[33],94.6%
same,"viability, T/C",[34],112%
same,"viability, T/C",[35],118%
same,"viability, T/C",[36],94.1%
same,"viability, T/C",[37],106%
same,"viability, T/C",[38],110%
same,"viability, T/C",[39],101%
same,"viability, T/C",[40],109%
same,"viability, T/C",[41],97%
same,"viability, T/C",[42],87.9%
same,"viability, T/C",[43],96%
same,"viability, T/C",[44],91.2%
same,"viability, T/C",[45],48.8%
same,"viability, T/C",[46],46.5%
same,"viability, T/C",[47],45.2%
same,"viability, T/C",[48],38.3%
same,"viability, T/C",[49],27.5%
same,"viability, T/C",[50],6.84%
Nc1ncn(C2CC(O)C(CO)S2)c(=O)n1 (stereo not given) + Cc1cncc(-c2nc(NCCc3c[nH]c4ccccc34)c3ncn(C(C)C)c3n2)c1,IC50,second compound 0.1 µM,> 300 nM
same,IC50,second compound 0.316 µM,> 300 nM
same,IC50,second compound 1 µM,> 300 nM
same,IC50,second compound 3.16 µM,> 300 nM
same,IC50,second compound 10 µM,< 0.949 nM
same,"viability, T/C","second compound 0.1 µM, first compound 0.000949 µM",73.1%
same,"viability, T/C","second compound 0.1 µM, first compound 0.003 µM",93.7%
same,"viability, T/C",[21],97.1%
same,"viability, T/C",[22],90.9%
same,"viability, T/C",[23],99.6%
same,"viability, T/C",[24],98.5%
same,"viability, T/C","second compound 0.316 µM, first compound 0.000949 µM",94.2%
same,"viability, T/C","second compound 0.316 µM, first compound 0.003 µM",84.2%
same,"viability, T/C",[27],81.8%
same,"viability, T/C",[28],84.8%
same,"viability, T/C",[29],101%
same,"viability, T/C",[30],90.9%
same,"viability, T/C","second compound 1 µM, first compound 0.000949 µM",93.8%
same,"viability, T/C","second compound 1 µM, first compound 0.003 µM",104%
same,"viability, T/C",[33],104%
same,"viability, T/C",[34],98.7%
same,"viability, T/C",[35],96.9%
same,"viability, T/C",[36],90.5%
same,"viability, T/C","second compound 3.16 µM, first compound 0.000949 µM",94.1%
same,"viability, T/C","second compound 3.16 µM, first compound 0.003 µM",86.4%
same,"viability, T/C",[39],86%
same,"viability, T/C",[40],82.3%
same,"viability, T/C",[41],74.2%
same,"viability, T/C",[42],78.4%
same,"viability, T/C","second compound 10 µM, first compound 0.000949 µM",45.5%
same,"viability, T/C","second compound 10 µM, first compound 0.003 µM",44.8%
same,"viability, T/C",[45],45.6%
same,"viability, T/C",[46],39.8%
same,"viability, T/C",[47],49.3%
same,"viability, T/C",[48],43.9%
O=C(C=Cn1cnc(-c2cc(C(F)(F)F)cc(C(F)(F)F)c2)n1)NNc1cnccn1 + Cc1cncc(-c2nc(NCCc3c[nH]c4ccccc34)c3ncn(C(C)C)c3n2)c1,IC50,second compound 0.1 µM,913 nM
same,IC50,second compound 0.316 µM,2330 nM
same,IC50,second compound 1 µM,2470 nM
same,IC50,second compound 3.16 µM,> 3000 nM
same,IC50,second compound 10 µM,< 9.49 nM
same,"viability, T/C",[21],83.3%
same,"viability, T/C",[22],103%
same,"viability, T/C",[23],87.1%
same,"viability, T/C",[24],82.4%
same,"viability, T/C",[25],48.6%
same,"viability, T/C",[26],44.6%
same,"viability, T/C",[27],88.2%
same,"viability, T/C",[28],91.9%
same,"viability, T/C",[29],88%
same,"viability, T/C",[30],74.5%
same,"viability, T/C",[31],65.9%
same,"viability, T/C",[32],45.6%
same,"viability, T/C",[33],105%
same,"viability, T/C",[34],96.6%
same,"viability, T/C",[35],97.7%
same,"viability, T/C",[36],72.2%
same,"viability, T/C",[37],62.8%
same,"viability, T/C",[38],47%
same,"viability, T/C",[39],97.7%
same,"viability, T/C",[40],88.2%
same,"viability, T/C",[41],97.5%
same,"viability, T/C",[42],87.7%
same,"viability, T/C",[43],67.7%
same,"viability, T/C",[44],53.2%
same,"viability, T/C",[45],44.4%
same,"viability, T/C",[46],48.4%
same,"viability, T/C",[47],55%
same,"viability, T/C",[48],59.3%
same,"viability, T/C",[49],50.1%
same,"viability, T/C",[50],47.7%
